The values below come from article PMC3030572, “Antamanide, a Derivative of Amanita phalloides, Is a Novel Inhibitor of the Mitochondrial Permeability Transition Pore” (PLoS ONE, 2011).

For one experiment, the system named is mouse liver mitochondria. Kind of experiment: mitochondrial respiration assay, mouse liver mitochondria. It is filed as biochemical. To be noted: polarography, Clark electrode, 25°C; data not shown. As for the experimental part: Mitochondrial oxygen consumption was measured polarographically at 25°C with a Clark oxygen electrode (Yellow Springs Instruments, OH, USA). Mitochondria (0.6 mg per experimental point) were incubated in a solution of 130 mM KCl, 10 mM Tris-Mops, 1 mM Pi-Tris, 20 mM EGTA-Tris and 2 µM rotenone/5 mM succinate to assay basal respiration (state 4). ADP (200 µM) was subsequently added to measure state 3 respiration, followed by the uncoupling agent dinitrophenol (100 µM) to assess the maximal respiration rate.

In experiment [1] the test system is mitochondrial permeability transition pore (PTP). Format: biochemical, mouse. How it is done:
A, chemical structure of AA. B, D, Ca^2+ retention capacity (CRC) either in phosphate (Pi) buffer (B) or in arsenate (Asi) buffer (D). Calcium Green-5N fluorescence is reported as arbitrary units on the y axis.
(§1) Mitochondria were isolated either from livers of C57BL/6 mice through sequential centrifugations, or from cells, as described. To obtain mitochondria, cells were disrupted with a glass-Teflon potter in a buffer composed by 250 mM sucrose, 10 mM Tris-HCl, 0.1 mM EGTA-Tris, pH 7.4. Nuclei and plasma membrane fractions were separated by a first mild centrifugation (700× g, 10 min), and mitochondria were then spinned down at a higher speed (7000× g, 10 min). All procedures were carried out at 0–4°C.
(§2) PTP opening was detected as a fluorescence increase.

Experiment [2] relates to HeLa cells. Format: cell-based, human. The conditions noted are these: 30 min preincubation, TMRM, n = 4. As for the experimental part: (§3) Figure 5 Effect of AA on mitochondrial potential of HeLa cells. A, bar graphs report the ratio between the CRC detected in the presence (CRC) and absence (CRC0) of increasing concentrations of AA in mitochondria from HeLa cells. […] B,C cytofluorimetric analysis of mitochondrial depolarization. HeLa cells were incubated with the TMRM probe and treated for 1 hour with the reported concentrations of either clotrimazole (CTM) or TAT-HK peptide. An unrelated TAT-linked peptide (TAT-Ctr) is used as a negative control. […] Bar graphs in B display the percentage of cells with depolarized mitochondria (mean±SD, n = 4). […] Histograms in C report a representative experiment, where cells with polarized and depolarized mitochondria are indicated in red and grey, respectively.
(§4) Flow cytometry recordings were performed as described, [51], [52]. Briefly, at the end of the incubation, cells were resuspended in 135 mM NaCl, 10 mM HEPES, 5 mM CaCl2 and incubated at 37°C in either TMRM (10 nM) to detect mitochondrial depolarization (reduced TMRM staining), or in FITC-conjugated Annexin-V and propidium iodide (PI, 1 µg/ml), to detect phosphatidylserine exposure on the cell surface (increased FITC-conjugated Annexin-V staining) and loss of plasma membrane integrity (PI permeability and staining). […] Samples were analyzed on a FACSCanto II flow cytometer (Becton Dickinson, San Diego, CA, USA). Data acquisition and analysis were performed using FACSDiva software.

Experiment [3] deals with HeLa cells. It is filed as cell-based, human. The conditions noted are these: 30 min preincubation, then TAT-HK 1 hour. As for the experimental part:
A, cytofluorimetric analysis of cell death induction in HeLa cells treated for 1 hour with TAT-HK. […] TAT-Ctr was used as a negative control. Cells were double stained with Annexin V-FITC and propidium iodide (PI), to respectively evaluate apoptosis induction as phosphatidylserine exposure on the cell surface (increased Annexin V-FITC staining) and cell death as plasma membrane permeabilization (increased PI staining). We considered Annexin V^+ as early/intermediate apoptotic cells; PI^+ as necrotic cells; double stained as late apoptotic cells. Bar graphs display the percentage of each cell population (mean±SD, n = 4; double positive cells are added to both bars). […] B, histograms reporting a representative experiment, where viable cells are indicated in red, PI^+- and Annexin V^+-cells are indicated in grey and green, respectively.
as §4

Another experiment deals with immunosuppressant. The arrangement: method as in PMID 1494502, PMID 8441706. The conditions noted are these: ref [10], [11]; cited from earlier work. The source says:
Antamanide (AA) is a monocyclic, homodetic decapeptide isolated from the poisonous mushroom Amanita phalloides. […] Little is known about the biochemical mechanisms underlying these diverse bioactivities. […] The CyP chaperone activity, i.e. the isomerization to the cis form of the peptidyl bonds preceding each proline, is involved in folding and association processes required for proteins to perform thei ...

Experiment [4] has as its system mitochondrial permeability transition pore (PTP), wild-type fibroblasts. Kind of experiment: CRC assay, mitochondria isolated from wild-type mouse fibroblasts. The conditions noted are these: Figure 3B. It is filed as biochemical. How it is done: Figure 3 Effect of AA on respiration and PTP opening in mitochondria of wild-type or CyP-D knock-out mouse fibroblasts. A, upper part: Western blot analysis assessing CyP-D expression in fibroblasts obtained from either wild-type or CyP-D knock-out mice; HKII was utilized to verify protein load; lower part: representative experiment showing oxygen consumption as assessed by polarography (see Methods) in mitochondria isolated from wild-type fibroblasts in the absence (a) or presence (b) of 8 µM AA. Experiments were started by adding 0.6 mg of mitochondria (Mito), followed by 100 µM ADP and 50 µM 2,4-dinitrophenol (DNP) (arrows). Each experiment was repeated at least three times. Oxygen consumption is reported as percentage of initial value on the y axis. B, bar graphs report the ratio between the CRC detected in the presence (CRC) and absence (CRC0) of increasing concentrations of AA, in mitochondria from either wild-type fibroblasts (left) or CyP-D knock-out fibroblasts (right).
as §1, §2

Experiment [5] concerns HeLa cells. Format: cell-based, human. The conditions noted are these: clotrimazole; data not shown.
Experiment [6] relates to phallotoxins and amatoxins. The conditions noted are these: cited from earlier work. The source says: Antamanide (AA) is a monocyclic, homodetic decapeptide isolated from the poisonous mushroom Amanita phalloides. […] Little is known about the biochemical mechanisms underlying these diverse bioactivities.
Experiment [7] deals with mitochondrial permeability transition pore (PTP), HeLa cells. Kind of experiment: CRC assay, mitochondria isolated from HeLa cells. To be noted: Figure 5A. Format: biochemical, human. As for the experimental part: as §3, §1, §2
Setting [8] is: AA at various concentrations, mean±SD of at least 4 experiments, Student's t test.

“Also recorded” adds a separate entry of the source.

Antamanide [AA]: the oxygen consumption entry with mouse liver mitochondria is “unaffected”. For the same substance, the “CRC/CRC0: difference from CRC of untreated mitochondria” value in experiment [1] (AA at various concentrations, Figure 1C and D, mean±SD of at least 4 experiments, Student's t test) is “significant difference (Student's t test analysis; *: p<0.01)”; in experiment [4] (setting [8]) it was “significant difference (Student's t test analysis; *: p<0.01)”; in experiment [7] (setting [8]), “significant difference (Student's t test analysis; *: p<0.01)”. Also, the “concentration at which the effect reaches a plateau (concentration-response CRC)” value in [1] (Figure 2B, mean±SD of at least 4 experiments) is “about 20 µM”. In addition, the “PTP inhibition in arsenate” value in experiment [1] (arsenate (Asi) buffer, Figure 1B, D) was “abrogated in the presence of arsenate; also recorded: act as pore inhibitors only in Pi buffer”. Besides, the “additivity of PTP inhibition with CsA” value in experiment [1] (combination with CsA, Figure 1C) is recorded as “not additive with that of CsA”; in experiment [4] (combination with CsA) it was “not enhanced by CsA; also recorded: not additive”; in experiment [7] (combination with CsA) it was “the effect of AA did not add to that of CsA; also recorded: not additive”. Further, the “additivity of PTP inhibition with Ub0” value in experiment [1] (combination with Ub0, Figure 1C, t test #: p<0.01) was “AA did increase inhibition by Ub0; also recorded: additive with that of Ub0”. For the same substance, the “PTP inhibition (CRC)” value is listed as “AA inhibited pore opening, similar to the PTP inhibitors CsA or Ubiquinone 0” in experiment [1] (phosphate-containing medium, Calcium Green-5N, 25°C); “AA inhibited the pore in mitochondria from wild-type fibroblasts” in experiment [4] (isolated mitochondria, 25°C); “AA inhibited the pore also in mitochondria isolated from HeLa cells” in experiment [7] (mitochondria from HeLa cells). The “reversal of CTM-induced mitochondrial depolarization” value in the experiment on HeLa cells [2] (then CTM 1 hour) is “significantly decreased the percentage of cells with mitochondria depolarized by CTM (Student's t test analysis; *: p<0.01); also recorded: similarly reverted”. In the experiment on HeLa cells [2] (then TAT-HK 1 hour), the “reversal of TAT-HK-induced mitochondrial depolarization” value is listed as “similarly reverted”. Moreover, the “effect on TAT-HK-induced necrotic response” value in the experiment with HeLa cells [3] is reported as “virtually abolished the necrotic response”. Besides, the “residual apoptosis after TAT-HK” value with HeLa cells [3] is recorded as “a small fraction of cells undergoing apoptosis was still detectable”. The “protection from TAT-HK induced death” value in the experiment with HeLa cells [3] (n = 4, Student's t test *: p<0.01) is “significantly protected from TAT-HK induced death”. The immunosuppressant activity entry in the experiment on immunosuppressant is “acts as an immunosuppressant”. Moreover, the “inhibition of clotrimazole-induced cell death” value with HeLa cells [5] was “inhibited the process”. Moreover, in experiment [6] (ref [2]), the antidote activity entry was “strong antidote activity against phallotoxins and amatoxins”. Moreover, the “abrogation of toxic effects of phalloidin” value in [6] (ref [8], [9]) is recorded as “abrogates the toxic effects of the phallotoxin phalloidin”.
